This is an account of results in patent US20250051319A1 (AUGUSTINE THERAPEUTICS, priority 2021, published 2025).

In assay [1] the target is human full-length recombinant HDAC1 (Homo sapiens (Human), UniProt Q13547). In words: HDAC1 enzymatic activity assay (alternative protocol, Ac-Gly-Ala-Lys(Ac)-AMC). Type of assay: biochemical. The note with it: 4 nM enzyme, read-out: HDAC1 biochem. As to the method: (§1) Inhibition of HDAC enzymes was performed in 384-well plate format using human full-length recombinant HDAC1 and HDAC6, isolated from a baculovirus expression system in Sf9 cells (BPS Bioscience). Reaction buffer for HDAC1 contained 50 mM Tris HCl pH 8.0, 137 mM NaCl, 2.7 mM KCl, 1 mM MgCl2, 0.1 mg/mL BSA, and reaction buffer for HDAC6 contained 50 mM Tris/HCl, pH 8.0, 137 mM NaCl, 2.7 mM KCl, 250 μM EDTA, 1 mM DTT, 0.1 mg/mL BSA. Compounds (dissolved in 100% DMSO) or DMSO (vehicle) were diluted in assay buffer at 3× final assay concentration and then added to assay plates. SAHA ([…]) was used as a positive control. 3× final assay concentration of recombinant enzymes (final assay concentration is 4 nM and 5 nM for HDAC1 and HDAC6, respectively) were preincubated for 10 minutes with test compounds at room temperature. Afterwards, 3× final assay concentration of an acetylated fluorogenic peptide (Ac-Gly-Ala-Lys(Ac))-AMC, Bachem; final assay concentration is 12 µM and 40 µM for HDAC1 and HDAC6, respectively) was added to assay plate, allowing deacetylase reactions to incubate for 60 minutes at room temperature. The developer reagent containing 5 μM SAHA and 50 μM trypsin was added to stop the deacetylase reaction and generate AMNC-fluorescence. 15 minutes after addition of developer reagent, endpoint measurements were taken using CLARIOstar (BMG Labtech) plate reader (excitation/emission: 360/450). Fluorescence signals were normalized for each plate using GraphPad Prism software: reaction HDAC-substrate in presence of DMSO was set to 100% while reaction HDAC-substrate in presence of 10 μM SAHA was set to 0%.
human full-length recombinant HDAC1, sequence (Q13547 whole entry): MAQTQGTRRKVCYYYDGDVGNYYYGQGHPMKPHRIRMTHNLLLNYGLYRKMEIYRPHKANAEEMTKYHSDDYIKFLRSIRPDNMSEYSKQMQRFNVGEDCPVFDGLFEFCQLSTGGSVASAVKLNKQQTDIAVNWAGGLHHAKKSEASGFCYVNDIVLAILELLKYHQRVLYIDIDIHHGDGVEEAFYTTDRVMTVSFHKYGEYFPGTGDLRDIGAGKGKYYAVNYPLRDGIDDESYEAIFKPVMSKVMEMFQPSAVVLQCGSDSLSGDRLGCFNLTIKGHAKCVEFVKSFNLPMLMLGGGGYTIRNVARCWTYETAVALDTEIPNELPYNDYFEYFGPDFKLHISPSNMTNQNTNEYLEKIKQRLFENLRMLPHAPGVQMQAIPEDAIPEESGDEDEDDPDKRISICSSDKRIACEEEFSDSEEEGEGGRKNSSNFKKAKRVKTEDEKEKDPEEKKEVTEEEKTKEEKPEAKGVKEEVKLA

Assay [2] deals with catalytic domain 2 (CD2) of HDAC6 (Homo sapiens (Human), UniProt Q9UBN7). The experiment in a line: Cellular target engagement assay - NanoBRET. In kind it is cell-based. As to conditions: NanoLuc-HDAC6(CD2) in HEK293T cells, 2 hours, read-out: IC50 (HDAC6(CD2) interaction).
catalytic domain 2 (CD2) of HDAC6, sequence (Q9UBN7 482-800): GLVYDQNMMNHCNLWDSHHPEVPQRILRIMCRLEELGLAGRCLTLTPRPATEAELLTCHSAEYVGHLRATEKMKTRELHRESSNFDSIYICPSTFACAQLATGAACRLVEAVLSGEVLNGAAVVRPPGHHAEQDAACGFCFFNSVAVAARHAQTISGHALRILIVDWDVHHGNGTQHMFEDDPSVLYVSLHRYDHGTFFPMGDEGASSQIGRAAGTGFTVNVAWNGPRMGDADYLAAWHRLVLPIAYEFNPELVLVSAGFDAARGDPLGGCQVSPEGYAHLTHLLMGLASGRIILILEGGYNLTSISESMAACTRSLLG
In assay [3] the target is human full-length recombinant HDAC6 (Homo sapiens (Human), UniProt Q9UBN7). In words: HDAC6 enzymatic activity assay (alternative protocol, Ac-Gly-Ala-Lys(Ac)-AMC). Type of assay: biochemical. As to conditions: 5 nM enzyme, read-out: HDAC6 biochem. As to the method:
as §1

pIC50: −log10 of the molar value.

human full-length recombinant HDAC6, sequence (Q9UBN7 whole entry): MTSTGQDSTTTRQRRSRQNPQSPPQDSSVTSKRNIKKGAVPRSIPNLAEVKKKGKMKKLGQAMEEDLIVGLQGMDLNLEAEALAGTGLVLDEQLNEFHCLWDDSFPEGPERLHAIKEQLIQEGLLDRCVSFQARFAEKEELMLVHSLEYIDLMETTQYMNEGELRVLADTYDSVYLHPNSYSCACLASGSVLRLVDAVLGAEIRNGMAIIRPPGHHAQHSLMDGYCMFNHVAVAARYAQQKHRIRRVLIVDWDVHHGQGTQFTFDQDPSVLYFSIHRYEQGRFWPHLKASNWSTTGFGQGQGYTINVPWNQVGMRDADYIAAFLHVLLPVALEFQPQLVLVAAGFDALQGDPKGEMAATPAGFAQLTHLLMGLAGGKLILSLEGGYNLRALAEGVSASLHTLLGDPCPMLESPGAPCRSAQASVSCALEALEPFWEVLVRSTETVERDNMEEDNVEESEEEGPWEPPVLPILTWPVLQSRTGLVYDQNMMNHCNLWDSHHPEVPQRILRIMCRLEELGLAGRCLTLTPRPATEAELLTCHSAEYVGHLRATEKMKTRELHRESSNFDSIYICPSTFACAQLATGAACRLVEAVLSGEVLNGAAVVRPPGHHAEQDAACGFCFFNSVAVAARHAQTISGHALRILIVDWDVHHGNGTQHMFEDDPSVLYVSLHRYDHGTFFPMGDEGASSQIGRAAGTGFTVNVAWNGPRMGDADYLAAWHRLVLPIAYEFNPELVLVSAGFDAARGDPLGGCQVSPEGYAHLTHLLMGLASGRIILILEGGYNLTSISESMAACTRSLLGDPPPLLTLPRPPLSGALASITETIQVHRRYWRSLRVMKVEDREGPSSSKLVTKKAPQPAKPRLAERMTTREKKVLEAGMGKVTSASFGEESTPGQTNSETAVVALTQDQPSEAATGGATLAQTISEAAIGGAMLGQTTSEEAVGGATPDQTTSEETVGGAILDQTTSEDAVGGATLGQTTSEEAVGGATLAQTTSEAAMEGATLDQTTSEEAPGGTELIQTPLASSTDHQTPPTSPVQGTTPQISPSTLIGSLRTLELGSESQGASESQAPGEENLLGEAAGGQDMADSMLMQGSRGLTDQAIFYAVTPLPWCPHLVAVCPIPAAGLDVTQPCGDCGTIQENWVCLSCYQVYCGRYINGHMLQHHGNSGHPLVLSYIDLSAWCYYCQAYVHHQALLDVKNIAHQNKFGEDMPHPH

With `COc1ccc2c(SCC(=O)c3ccc(CNC(=O)C(C)(C)C)s3)nc(C)nc2c1` [Example 12, N-((5-(2-((7-methoxy-2-methylquinazolin-4-yl)thio)acetyl)thiophen-2-yl)methyl)pivalamide], the pIC50 is under 5.00 in assay [1], 6.30 to 7.00 in assay [2] and at least 7.00 in assay [3].

`Cc1nc(SCC(=O)c2ccc(CNC(=O)C(C)(C)C)s2)c2cccc(F)c2n1` [Example 15, N-((5-(2-((8-fluoro-2-methylquinazolin-4-yl)thio)acetyl)thiophen-2-yl)methyl)pivalamide]: the values for the pIC50 in assay [1], in assay [2] and in assay [3] were under 5.00, 6.30 to 7.00 and at least 7.00, respectively.

Take `CN(C)c1nc(SCC(=O)c2ccc(CNC(=O)C(C)(C)C)s2)c2ccccc2n1` [Example 16, N-((5-(2-((2-(dimethylamino)quinazolin-4-yl)thio)acetyl)thiophen-2-yl)methyl)pivalamide]: the pIC50 in assay [1] was under 5.00; in assay [2], 6.30 to 7.00; in assay [3], at least 7.00.

Take `CC(C)(C)C(=O)NCc1ccc(C(=O)CSc2nc(C(F)F)nc3ccccc23)s1` [Example 19, N-((5-(2-((2-(difluoromethyl)quinazolin-4-yl)thio)acetyl)thiophen-2-yl)methyl)pivalamide]: the pIC50 in assay [1] is under 5.00; in assay [2], 6.30 to 7.00; in assay [3] it was at least 7.00.

Take `Cn1ncc2c(SCC(=O)c3ccc(CNC(=O)C(C)(C)C)s3)nc(C(F)(F)F)nc21` [Example 20, N-((5-(2-((1-methyl-6-(trifluoromethyl)-1H-pyrazolo[3,4-d]pyrimidin-4-yl)thio)acetyl)thiophen-2-yl)methyl)pivalamide]: the pIC50 in assay [1] was under 5.00; in assay [2], 6.30 to 7.00; in assay [3], at least 7.00.

Take `Cn1ncc2c(SCC(=O)c3ccc(CNC(=O)C(C)(C)C)s3)nc(C(F)F)nc21` [Example 21, N-((5-(2-((6-(difluoromethyl)-1-methyl-1H-pyrazolo[3,4-d]pyrimidin-4-yl)thio)acetyl)thiophen-2-yl)methyl)pivalamide]: the pIC50 in assay [1] was under 5.00; in assay [2], 6.00 to 6.30; in assay [3], at least 7.00.

For `Cc1ccc2oc(SCC(=O)c3ccc(CNC(=O)C(C)(C)C)s3)nc2n1` [Example 23, N-((5-(2-((5-methyloxazolo[4,5-b]pyridine-2-yl)thio)acetyl)thiophen-2-yl)methyl)pivalamide], the pIC50 is 5.00 to 6.00 in assay [1], 6.30 to 7.00 in assay [2] and at least 7.00 in assay [3].

On to `CC1CCN(Cc2ccc(C(=O)CSc3ncnc4c3cnn4C)s2)C1=O` (stereo not drawn) [Example 24, 3-methyl-1-((5-(2-((1-methyl-1H-pyrazolo[3,4-d]pyrimidin-4-yl)thio)acetyl)thiophen-2-yl)methyl)pyrrolidin-2-one], for which the pIC50 in assay [1] is under 5.00; in assay [2], 6.30 to 7.00; in assay [3], at least 7.00.

`Cn1ncc2c(SCC(=O)c3ccc(CN4CCCC4=O)s3)ncnc21` [Example 25, 1-((5-(2-((1-methyl-1H-pyrazolo[3,4-d]pyrimidin-4-yl)thio)acetyl)thiophen-2-yl)methyl)pyrrolidin-2-one]: the figures for the pIC50 in assay [1], in assay [2] and in assay [3] were under 5.00, 6.30 to 7.00 and at least 7.00, respectively.

Take `O=C(CSc1nc(C(F)(F)F)nc2ccccc12)c1ccc(CCN2CCCC2=O)s1` [Example 26, 1-(2-(5-(2-((2-(trifluoromethyl)quinazolin-4-yl)thio)acetyl)thiophen-2-yl)ethyl)pyrrolidin-2-one]: the pIC50 in assay [1] is under 5.00; in assay [2], 6.30 to 7.00; in assay [3], at least 7.00.

`Cn1ncc2c(SCC(=O)c3cc(F)c(CNC(=O)C(C)(C)C)s3)ncnc21` [Example 28, N-((3-fluoro-5-(2-((1-methyl-1H-pyrazolo[3,4-d]pyrimidin-4-yl)thio)acetyl)thiophen-2-yl)methyl)pivalamide]: the figures for the pIC50 in assay [1], in assay [2] and in assay [3] were under 5.00, 6.00 to 6.30 and at least 7.00, respectively.
